For data set [1], the system named is pain induced by heat radiation in mice. In words: pain induced by heat radiation in mice (light and heat-induced pain). The following applies: for ED50: Mus musculus; for analgesic effect (comparison in words): four mouse models of pain (heat radiation and hot plate), versus dezocine. Format: in vivo. The text has this:
(§1) A mode of pain induced by heat radiation in mice and a mode of pain induced by hot plate in mice were used to evaluate the analgesic intensity of the test compounds.

The nature of data set [2]: pharmacokinetic investigation of intravenous administration in mice. Format: in vivo. The following applies: mouse; male mice, intravenous injection, plasma. Here is the method: Male mice were injected intravenously with the compound of the present disclosure, and the concentration of the unchanged compound in plasma and the concentration of the metabolite of dezocine hydrochloride were measured after the administration.

Data set [3] deals with κ opioid receptor (Homo sapiens, UniProt P41145). Kind of data set: radioisotope ligand competitive binding assay, κ opioid receptor (KOR). The following applies: [3H]Diprenorphine 0.3 nM, cell membrane of stably transfected cells; read-out: κ IC50. The text has this:
(§2) Through the radioisotope ligand competitive binding assay, IC50 of the compound was used as an indicator to evaluate the affinity of the compound to κ and δ opioid receptors.
(§3) (1) Reagents • The cell membrane was extracted from stably transfected cells constructed by WuXi AppTec, Shanghai. • 3H-diprenophrine (PerkinElmer, Cat: NET1121250UC, Lot: 2143599) • 3H-DAMGO (PerkinElmer, Cat: NET902250UC, Lot: 2139100) • 3H-DADLE (PerkinElmer, Cat: NET648250UC, Lot: 2060549) • Tris base (Sigma, Cat: T6066-1KG), prepare 1M stock and adjust pH to 7.4. • 0.5M EDTA (Invitrogen, Cat: 15575-038) • 1M MgCl2 (Sigma, Cat: M1028-100 ml) • PEI (Poly ethyleneimine) (Sigma, Cat: P3143) • Microscint 20 cocktail (PerkinElmer, Cat: 6013329) • Naltrindole (Sigma, Cat; N115) • (±)trans-U-50488 (Sigma, Cat: D8040) • DAMGO (Sigma, Cat: E7384)
(§4) (1) 1 μL of the test compounds, negative control (i.e., DMSO) and positive control (i.e., non-specific binding well compound), after being prepared, were respectively transferred to a 96-well plate;
(§5) (2) 99 μL of the prepared opioid receptor membrane protein was added to each well of the 96-well plate containing 1 μL of the compound;
(§6) (3) 100 μL of 2× corresponding radioisotope ligand was added to each well;
(§7) (4) The plate was placed on a shake and incubated at room temperature for 1 hour;
(§8) (5) Each well of the GF/C plate was soaked with 50 μL of 0.3% PEI for at least half an hour in advance;
(§9) (6) After the incubation was finished, the GF/C plate was washed with plate washing buffer once by using Harvest. Then, the cell membranes in the 96-well plate were collected onto the GF/C plate using Harvest, and the GF/C plate was washed four times with the plate washing buffer, each time about 250 μL;
(§10) (7) The GF/C plate was placed in an oven at 50° C. for 1 hour;
(§11) (8) The bottom of the GF/C plate was sealed with a plate sealing film, 50 μL of Microscint-20 scintillation fluid was added to each well, and then the plate was sealed with a transparent sealing film for microplate;
(§12) (9) The radioactive signal value CPM was read using MicroBeta2;
(§13) (10) The data was analyzed with Prism 5. The percentage inhibition rate was calculated with the calculation formula: % Inh=(1-Background subtracted Assay value/Background subtracted HC value)*100.

Data set [4] relates to pain induced by hot plate in mice. In words: pain induced by hot plate in mice. Format: in vivo. The following applies: Mus musculus; male mice.
Source text: as §1

The target in data set [5] is δ opioid receptor (Homo sapiens, UniProt P41143). In words: radioisotope ligand competitive binding assay, δ opioid receptor (DOR). The following applies: [3H]-DADLE 0.5 nM, cell membrane of stably transfected cells; read-out: δ IC50.
Source text: as §2, §3, §4, §5, §6, §7, §8, §9, §10, §11, §12, §13

The target in data set [6] is μ opioid receptor (Homo sapiens, UniProt P35372). In words: radioisotope ligand competitive binding assay, μ opioid receptor (MOR). The following applies: [3H]DAMGO 0.5 nM, cell membrane of stably transfected cells; read-out: μ IC50.
Where [7] appears, read: female mice, read-out: Light and heat-induced pain ED50 Female.
The mark [8] stands for this setting: male mice, read-out: Light and heat-induced pain ED50 Male.

Structures can show the parent of a compound that is named as a salt. Where two headings read alike, the source gives them in different places.

For orientation: ED50 means the midpoint of the dose-response relation. What is called half-life is the time needed for the level to fall by half in the phase considered. Low readings indicate fast loss, high ones slow loss. The term IC50 denotes the midpoint of a concentration-inhibition curve. On to `CCCCCN[C@H]1[C@H]2CCCCC[C@]1(C)c1cc(O)ccc1C2` [Hydrochloride of compound 22], for which the ED50 turned out to be 0.18 mg/kg in data set [1] (setting [7]), 0.13 mg/kg in data set [1] (setting [8]) and 0.3 mg/kg in data set [4]. The “Light and heat-induced pain ED95 Female” value in data set [1] (female mice) worked out at 0.26 mg/kg. The “analgesic effect (comparison in words)” value in data set [1] is on record as “stronger than dezocine”. The “Light and heat-induced pain ED95 Male” value in data set [1] (male mice) stood at 0.26 mg/kg. In addition, the half-life in data set [2] is 1.24 h. The IC50 in data set [3] is 10 to 100 nM; in data set [5], 10 to 100 nM; in data set [6], under 10 nM.
As to `C[C@@]12CCCCC[C@@H](Cc3ccc(O)cc31)[C@@H]2NCCc1ccccc1` [Hydrochloride of compound 25], the results for the median effective dose (ED50) in data set [1] (setting [7]) and in data set [1] (setting [8]) were 1.15 mg/kg and 0.74 mg/kg, respectively. Moreover, in data set [1] (female mice), the “Light and heat-induced pain ED95 Female” value turned out to be 2.88 mg/kg. The “Light and heat-induced pain ED95 Male” value in data set [1] (male mice) is reported as 1.18 mg/kg. The half-life in data set [2] is 1.65 h. The IC50 was 100 to 1000 nM in data set [3], 100 to 1000 nM in data set [5] and under 10 nM in data set [6].
Consider `CCCCN[C@H]1[C@H]2CCCCC[C@]1(C)c1cc(O)ccc1C2` [Hydrochloride of compound 21], for which the ED50 came to 0.068 mg/kg in data set [1] (setting [7]), 0.12 mg/kg in data set [1] (setting [8]) and 0.15 mg/kg in data set [4]. In data set [1] (female mice), the “Light and heat-induced pain ED95 Female” value is given as 0.083 mg/kg. For the same molecule, the “Light and heat-induced pain ED95 Male” value in data set [1] (male mice) was 0.18 mg/kg. Also, the half-life in data set [2] was 1.27 h. Moreover, the IC50 in data set [3] was 10 to 100 nM; in data set [5], 10 to 100 nM; in data set [6], under 10 nM.
`C[C@@]12CCCCC[C@@H](Cc3ccc(O)cc31)[C@@H]2NCc1ccccc1` [Hydrochloride of compound 26]: the ED50 came out at 0.025 mg/kg in data set [1] (setting [7]), 0.017 mg/kg in data set [1] (setting [8]) and 0.045 mg/kg in data set [4]. In addition, in data set [1] (female mice), the “Light and heat-induced pain ED95 Female” value was 0.043 mg/kg. Moreover, the “analgesic effect (comparison in words)” value in data set [1] was “strongest analgesic effect”. Also, the “Light and heat-induced pain ED95 Male” value in data set [1] (male mice) amounted to 0.021 mg/kg. This molecule also gave a half-life in data set [2] of 1.35 h. Also, the IC50 in data set [3], in data set [5] and in data set [6] was under 10 nM in each case.

Source of the values: US20220117913A1, “DEZOCINE DERIVATIVE AND MEDICAL USE THEREOF” (YANGTZE RIVER PHARMACEUTICAL GROUP CO., LTD., priority 2019, published 2022).
